The values below come from patent US20250064756A1, “NANOCRYSTALLINE TIO2 AND ZNO ORGANOSELENIUM SCAFFOLDS POSSESING DISELENIDE (SE-SE) FUNCTIONALITY FOR BIOMEDICAL TECHNOLOGY” (KING FAISAL UNIVERSITY, priority 2023, published 2025).

Structures are written as SMILES. Values joined by “and” are separate entries in the source; they are usually repeats but may differ in a detail not shown here. Equal values may be shown once.

Holding throughout (experiment): Antimicrobial activity, agar diffusion assay
Type in all cases: cell-based
Background: Agar diffusion results depend on both activity and mobility in agar.

The test system of test [1] is S. aureus (+ve). The conditions noted are these: for A %: Cip. = 100. As to the method: (§1) All reagents and solvents used in these studies were purchased from Sigma and used without purification. Melting points (MP) were measured on the Gallenkamp apparatus in degrees centigrade. The IR spectra (KBr, λmax·cm^−1) were recorded on a Mattson spectrophotometer (5000 FTIR) at King Faisal University. The ^1H & ^13C NMR spectra were measured using Varian Spectrophotometer (400 MHz), employing DMSO-d6 as the solvent and TMS internal standard at Mansoura University. The chemical shifts (δ, ppm) were recorded regarding the solvent residual peaks. GC-MS-QP-100 EX Shimadzu apparatus was used for mass measurements at Cairo University. All biological tests were carried out at the Faculty of Pharmacy, Mansoura University. All cell lines and microorganisms were purchased from the VACSERA Company (ATCC), Cairo, Egypt. DPPH and ABTS probes were obtained from Sigma.
(§2) In General, the diaryl diselenide B manifested promising antimicrobial activity against E. coli (A %=83%), S. aureus (A %=86%), and C. Albicans (A %=88%).

In test [2] the test system is P. aeruginosa (−ve). Conditions: for A %: Cip. = 100. As to the method:
as §1, §2

Test [3] relates to E. coli (−ve). The conditions noted are these: for A %: Cip. = 100. The procedure:
as §1, §2

The subject of test [4] is B. subtilis (+ve). The conditions noted are these: for A %: Cip. = 100. The procedure:
as §1, §2

Test [5] has as its system A. flavus. As to the method:
as §1, §2

The test system of test [6] is C. albicans. Conditions: for A %: Col. = 100. The procedure:
as §1, §2

As for `O=C(O)c1cn(C2CC2)c2cc(N3CCNCC3)c(F)cc2c1=O` [Cip., reference compound], the “IZD (agar diffusion assay diameter)” value worked out at 24 mm in test [1], 23 mm in test [2], 26 mm in test [3] and 23 mm in test [4]. The A % in test [1], in test [2], in test [3] and in test [4] was 100% each time.
With `Nc1ccc([Se][Se]c2ccc(N)cc2)cc1` [Compound A], the “IZD (agar diffusion assay diameter)” value in test [1] is on record as 17 mm; in test [2] it was 11 mm; in test [3], 14 mm; in test [5] it was 8 mm; in test [4], 15 mm; in test [6] it was 12 mm. For the same molecule, the A % in test [1] is 71%; in test [2], 48%; in test [3], 54% and 62% and 65%; in test [5] (Col. = 100) it was 32%; in test [4] it was 65%; in test [6] it was 44%.
For `COC(=O)c1cc([Se][Se]c2ccc(N)c(C(=O)OC)c2)ccc1N` [Compound B, dimethyl 5,5-diselanediylbis(2-aminobenzoate)], the results for the “IZD (agar diffusion assay diameter)” value in test [1], in test [3] and in test [6] were 18 mm, 19 mm and 21 mm, respectively. The A % was found to be 86% in test [1], 83% in test [3] and 88% in test [6].
